Assay results: ChEMBL document CHEMBL1131172 (J Med Chem, 1998)

Experiments:
786-0 = assay: inhibition of the growth of renal cancer(786-0) cell line; format: functional; conditions: Homo sapiens
A549 [1] = assay: inhibition of the growth of non-small-cell lung cancer (A549/ATCC) cell line; format: functional; conditions: Homo sapiens
A549 [2] = assay: Inhibition of the growth of non-small-cell lung cancer (A549/ATCC) cell line at 0.01 uM; format: functional; conditions: Homo sapiens
CAKI-1 = assay: inhibition of the growth of renal cancer(CAKI-1) cell line; format: functional; conditions: Homo sapiens
DU-145 = assay: inhibition of the growth of prostate cancer(DU-145) cell line; format: functional; conditions: Homo sapiens
HCT-15 [3] = assay: Inhibition of the growth of colon cancer(HCT-15) cell line at 0.01 uM; format: functional; conditions: Homo sapiens
HCT-15 [4] = assay: inhibition of the growth of colon cancer(HCT-15) cell line; format: functional; conditions: Homo sapiens
HCT-116 [5] = assay: inhibition of the growth of colon cancer(HCT116) cell line; format: functional; conditions: Homo sapiens
HCT-116 [6] = assay: Inhibition of the growth of colon cancer(HCT116) cell line at 0.01 uM; format: functional; conditions: Homo sapiens
IGROV-1 [7] = assay: inhibition of the growth of ovarian cancer(IGROVI) cell line; format: functional; conditions: Homo sapiens
KM12 = assay: inhibition of the growth of colon cancer(KM-12) cell line; format: functional; conditions: Homo sapiens
MOLT-4 = assay: inhibition of the growth of leukemia (MOLT-4) cell line; format: functional; conditions: Homo sapiens
NCI/ADR-RES = assay: inhibition of the growth of breast cancer (MCF7/ADR-RES) cell line; format: functional; conditions: Homo sapiens
M14 = assay: inhibition of the growth of melanoma cancer (M14) cell line; format: functional; conditions: Homo sapiens
MDA-N [8] = assay: inhibition of the growth of breast cancer(MDA-N) cell line; format: functional; conditions: Homo sapiens
MDA-N [9] = assay: Inhibition of the growth of breast cancer(MDA-N) cell line at 0.01 uM; format: functional; conditions: Homo sapiens
MDA-MB-435 [10] = assay: Inhibition of the growth of breast cancer (MDA-MB-435) cell line at 0.01 uM; format: functional; conditions: Homo sapiens
MDA-MB-435 [11] = assay: inhibition of the growth of breast cancer (MDA-MB-435) cell line; format: functional; conditions: Homo sapiens
MCF7 = assay: inhibition of the growth of breast cancer (MCF-7) cell line; format: functional; conditions: Homo sapiens
NCI-H460 [12] = assay: inhibition of the growth of non-small-cell lung cancer (NCI-H460) cell line; format: functional; conditions: Homo sapiens
NCI-H522 = assay: inhibition of the growth of non-small-cell lung cancer (NCI-H522) cell line; format: functional; conditions: Homo sapiens
NCI-H322M = assay: inhibition of the growth of non-small-cell lung cancer (NCI-H322M) cell line; format: functional; conditions: Homo sapiens
OVCAR-8 [13] = assay: inhibition of the growth of ovarian cancer(OVCAR-8) cell line; format: functional; conditions: Homo sapiens
NCI-H460 [14] = assay: Inhibition of the growth of non-small-cell lung cancer (NCI-H460) cell line at 0.01 uM; format: functional; conditions: Homo sapiens
NCI-H23 [15] = assay: inhibition of the growth of non-small-cell lung cancer (NCI-H23) cell line; format: functional; conditions: Homo sapiens
NCI-H23 [16] = assay: Inhibition of the growth of non-small-cell lung cancer (NCI-H23) cell line at 0.01 uM; format: functional; conditions: Homo sapiens
RPMI-8226 [17] = assay: Inhibition of the growth of leukemia (RPMI-8226) cell line at 0.01 uM; format: functional; conditions: Homo sapiens
RPMI-8226 [18] = assay: inhibition of the growth of leukemia (RPMI-8226) cell line; format: functional; conditions: Homo sapiens
SF-268 [19] = assay: Inhibition of the growth of CNS cancer(SF-268) cell line at 0.01 uM; format: functional; conditions: Homo sapiens
SF-268 [20] = assay: inhibition of the growth of CNS cancer(SF-268) cell line; format: functional; conditions: Homo sapiens
SF-295 [21] = assay: inhibition of the growth of CNS cancer(SF-295) cell line; format: functional; conditions: Homo sapiens
SF-295 [22] = assay: Inhibition of the growth of CNS cancer(SF-295) cell line at 0.01 uM; format: functional; conditions: Homo sapiens
SNB-19 [23] = assay: inhibition of the growth of CNS cancer(SNB-19) cell line; format: functional; conditions: Homo sapiens
SNB-19 [24] = assay: Inhibition of the growth of CNS cancer(SNB-19) cell line at 0.01 uM; format: functional; conditions: Homo sapiens
SF-539 = assay: inhibition of the growth of CNS cancer(SF-539) cell line; format: functional; conditions: Homo sapiens
SR = assay: inhibition of the growth of leukemia(SR) cell line; format: functional; conditions: Homo sapiens
SK-MEL-5 [25] = assay: inhibition of the growth of melanoma cancer (SK-MEL-5) cell line; format: functional; conditions: Homo sapiens
SK-MEL-5 [26] = assay: Inhibition of the growth of melanoma cancer (SK-MEL-5) cell line at 0.01 uM; format: functional; conditions: Homo sapiens
UO-31 [27] = assay: inhibition of the growth of renal cancer(UO-31) cell line; format: functional; conditions: Homo sapiens
UO-31 [28] = assay: inhibition of the growth of renal cancer(UO-31) cell line at 0.01 uM; format: functional; conditions: Homo sapiens
IGROV-1 [29] = assay: Inhibition of the growth of ovarian cancer(IGROVI) cell line at 0.01 uM; format: functional; conditions: Homo sapiens
OVCAR-8 [30] = assay: Inhibition of the growth of ovarian cancer(OVCAR-8) cell line at 0.01 uM; format: functional; conditions: Homo sapiens
[31] = molecular target: T1, Bifunctional dihydrofolate reductase-thymidylate synthase (Toxoplasma gondii, UniProt Q07422)
T1 sequence (Q07422 whole entry): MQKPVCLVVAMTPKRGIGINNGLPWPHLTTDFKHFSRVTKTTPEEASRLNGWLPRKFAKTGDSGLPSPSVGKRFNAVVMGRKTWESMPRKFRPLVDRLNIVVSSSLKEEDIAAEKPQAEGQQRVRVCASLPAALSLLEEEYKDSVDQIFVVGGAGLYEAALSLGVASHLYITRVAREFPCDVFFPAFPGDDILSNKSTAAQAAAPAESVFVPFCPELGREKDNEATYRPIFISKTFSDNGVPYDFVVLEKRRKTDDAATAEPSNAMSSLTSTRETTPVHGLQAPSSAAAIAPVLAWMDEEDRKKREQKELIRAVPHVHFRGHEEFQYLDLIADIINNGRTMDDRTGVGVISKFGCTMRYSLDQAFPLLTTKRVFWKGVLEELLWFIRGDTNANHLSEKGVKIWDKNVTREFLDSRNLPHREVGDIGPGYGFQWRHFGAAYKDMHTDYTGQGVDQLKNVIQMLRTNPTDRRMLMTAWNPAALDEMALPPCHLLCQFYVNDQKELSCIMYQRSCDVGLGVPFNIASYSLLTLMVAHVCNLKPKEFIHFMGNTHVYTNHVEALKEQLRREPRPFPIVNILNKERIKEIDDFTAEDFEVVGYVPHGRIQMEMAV
Description: Inhibitory activity against dihydrofolate reductase (DHFR) from Toxoplasma gondii

Dihydrofolate reductase [32] = molecular target: T2, Dihydrofolate reductase (Pneumocystis carinii, UniProt P16184)
T2 sequence (P16184 whole entry): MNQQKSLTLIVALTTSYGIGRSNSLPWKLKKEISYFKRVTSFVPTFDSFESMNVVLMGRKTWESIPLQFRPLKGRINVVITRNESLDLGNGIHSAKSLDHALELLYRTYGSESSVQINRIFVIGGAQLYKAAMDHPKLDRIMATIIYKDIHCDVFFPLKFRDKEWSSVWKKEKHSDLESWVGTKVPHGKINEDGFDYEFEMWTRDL
Description: Inhibitory activity against dihydrofolate reductase (DHFR) from Pneumocystis carinii

Dihydrofolate reductase [33] = molecular target: T3, Dihydrofolate reductase (Rattus norvegicus, UniProt Q920D2)
T3 sequence (Q920D2 whole entry): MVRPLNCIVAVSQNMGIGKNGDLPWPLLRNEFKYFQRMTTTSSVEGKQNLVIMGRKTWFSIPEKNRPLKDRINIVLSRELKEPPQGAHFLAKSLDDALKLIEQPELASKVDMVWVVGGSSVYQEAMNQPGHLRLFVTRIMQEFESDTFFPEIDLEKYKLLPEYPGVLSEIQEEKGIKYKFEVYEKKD
Description: Inhibitory activity against dihydrofolate reductase (DHFR) from rat liver

Work on `COc1cc(N(C)c2ccc3nc(N)nc(N)c3n2)cc(OC)c1OC` yielded a GI50 (786-0) of 20 nM, a GI50 (A549 [1]) of under 10 nM and an inhibition at 0.01 µM (A549 [2]) of 67%. The GI50 (CAKI-1) was 10 nM, the GI50 (DU-145) was 220 nM and the inhibition at 0.01 µM (HCT-15 [3]) was 57%. It also gave a GI50 (HCT-15 [4]) of under 10 nM, a GI50 (HCT-116 [5]) of under 10 nM and an inhibition at 0.01 µM (HCT-116 [6]) of 76%. For the same compound, the GI50 (IGROV-1 [7]) was under 10 nM, the GI50 (KM12) was 40 nM and the GI50 (MOLT-4) was 40 nM. The GI50 (NCI/ADR-RES) was 10 nM, the GI50 (M14) was 20 nM and the GI50 (MDA-N [8]) was under 10 nM. It also gave an inhibition at 0.01 µM (MDA-N [9]) of 58%, an inhibition at 0.01 µM (MDA-MB-435 [10]) of 56% and a GI50 (MDA-MB-435 [11]) of under 10 nM. It also gave a GI50 (MCF7) of 40 nM, a GI50 (NCI-H460 [12]) of under 10 nM and a GI50 (NCI-H522) of 30 nM. The GI50 (NCI-H322M) was 11000 nM, the GI50 (OVCAR-8 [13]) was under 10 nM and the inhibition at 0.01 µM (NCI-H460 [14]) was 79%. The GI50 (NCI-H23 [15]) was under 10 nM, the inhibition at 0.01 µM (NCI-H23 [16]) was 51% and the inhibition at 0.01 µM (RPMI-8226 [17]) was 56%. The GI50 (RPMI-8226 [18]) was under 10 nM, the inhibition at 0.01 µM (SF-268 [19]) was 61% and the GI50 (SF-268 [20]) was under 10 nM. For the same compound, the GI50 (SF-295 [21]) was under 10 nM, the inhibition at 0.01 µM (SF-295 [22]) was 53% and the GI50 (SNB-19 [23]) was under 10 nM. For the same compound, the inhibition at 0.01 µM (SNB-19 [24]) was 53%, the GI50 (SF-539) was 20 nM and the GI50 (SR) was 30 nM. The GI50 (SK-MEL-5 [25]) was under 10 nM, the inhibition at 0.01 µM (SK-MEL-5 [26]) was 60% and the GI50 (UO-31 [27]) was under 10 nM. For the same compound, the inhibition at 0.01 µM (UO-31 [28]) was 65%, the inhibition at 0.01 µM (IGROV-1 [29]) was 52% and the inhibition at 0.01 µM (OVCAR-8 [30]) was 57%. The IC50 [31] was 7.6 nM, the IC50 (Dihydrofolate reductase [32]) was 21 nM and the IC50 (Dihydrofolate reductase [33]) was 3.7 nM.
